Assay results taken from patent publication US20260028596A1, “METHOD FOR PRODUCING HIGH YIELD AND HIGH QUALITY RECOMBINANT ADENO-[…]” (Aavatar Therapeutics Co.,Ltd., priority 2022, published 2026).

Key:
[1] = system: Host cells capable of producing a recombinant adeno-associated virus of a AAV9 serotype (Expi293F cells); assay: Pre-culture treatment process: rAAV yield (total vg) of host cells; assay type: cell-based; conditions: pre-culture agent with PEI (1 mg/ml), Nocodazole 4 uM and/or M344 2.5 uM, 4 hours after transfection; osmotic shock after 4 days (FIG. 3)
Experimental: (§1) Expi293F cells (Cat #A14527, Thermo) were grown in Expi293 Expression Medium (Cat #A14351-02, Thermo) supplemented with 1% penicillin-streptomycin (Cat #15140122, Thermo). Then, the cells were maintained under serum-free suspension culture conditions. Herein, the serum-free suspension culture conditions were as follows: 120 rpm stirring rate in a shaker incubator (Cat #NB-206CL, N-biotek, South Korea); 37° C.; 8% CO2; and 85% relative humidity.
(§2) Expi293F cells were seeded in Expi293F expression media at a density of 2.5×10^6 cells per 1 mL and cultured for 3 hours. Then, the cells were transfected using 25-kDa linear PEI (Cat #23966-1, Polyscience, USA) along with the three plasmids (pHelper[Cat #112867, Addgene], pRC9n[Cat #112865, Addgene], and pAAV[Cat #105530, Addgene]), respectively. Specifically, the plasmids were mixed in DMEM (Cat #10569010, Thermo) at 1/10 the volume of cells to be transfected. Next, PEI was added to DNAs diluted in DMEM. After an additionally 20-minute culture, a DNA-PEI complex was added to the cells.
The following experiment was conducted to determine a yield improvement effect of the recombinant adeno-associated virus production process including the pre-culture treatment process depending on pre-culture treatment conditions: […]

[2] = system: Host cells capable of producing recombinant adeno-associated virus of the AAV9 serotype (Expi293F cells); assay: Osmotic shock process: viral genomes (vg) recovered from media of rAAV-producing host cells; assay type: cell-based; conditions: 0.5 M salt as osmotic shock reagent, added 4 days after transfection, 3 hours; vs negative control NT (FIG. 2)
Experimental: as §1, §2
The following experiment was conducted to determine a yield improvement effect of the recombinant adeno-associated virus production process including the osmotic shock process depending on osmotic shock conditions:
Host cells capable of producing recombinant adeno-associated virus of the AAV9 serotype were prepared according to Experimental Examples 1.1 to 1.3.
For each experimental group, 2.5×10^6 cells per mL were seeded in a 30 mL culture vessel, and experiments were conducted using a total of 16 culture vessels for each experimental group.
On the basis of the time of transfection of the recombinant adeno-associated virus expression plasmid into the host cells, an osmotic shock reagent was added 4 days later, the condition was maintained for 3 hours, sample media and/or cells were harvested, and the viral genome was (vg) counts were measured.

Compound | yield of recombinant adeno-associated virus in the host cells [1] | number of viral genomes recovered from the media, by salt type [2]
CN(C)c1ccc(C(=O)NCCCCCCC(=O)NO)cc1 [M344] | yield of recombinant adeno-associated virus in the host cells was increased | –
[Cl-].[Na+] [NaCl, sodium chloride] | – | significant increase in the number of viral genomes recovered from the media
[Cl-].[K+] [KCl, potassium chloride] | – | significant increase in the number of viral genomes recovered from the media
COC(=O)Nc1nc2ccc(C(=O)c3cccs3)cc2[nH]1 [Nocodazole] | yield of recombinant adeno-associated virus in the host cells was increased | –
[Cl-].[Cl-].[Mg+2] [MgCl2, magnesium chloride] | – | significant increase in the number of viral genomes recovered from the media
